Measurements published in patent US20120094894A1, “ANTIDIABETIC MEDICATIONS COMPRISING A DPP-4 INHIBITOR (LINAGLIPTIN) OPTIONALLY IN COMBINATION WITH OTHER ANTIDIABETICS” (BOEHRINGER INGELHEIM INTERNATIONAL GMBH, priority 2009, published 2012).

Legend:
[1] = metformin on its own, in the diabetic; cited from earlier work
DIO mice [2] = assay: Blood glucose following OGTT (AUC) in diet-induced obesity model; assay type: in vivo; conditions: 4 weeks, p<0.01
DIO mice [3] = assay: Liver fat content by magnetic resonance spectroscopy (MRS) in diet-induced obesity model; assay type: in vivo
From the text: Hepatic steatosis is a hallmark of patients with type 2 diabetes and underlies the pathogenesis of non-alcoholic fatty liver disease (NAFLD). Linagliptin is a selective and non-renal excreted inhibitor of dipeptidyl peptidase-4 (DPP-4). […]. Liver lipid content is detected by magnetic resonance spectroscopy (MRS) in vivo and ex vivo by analysis of liver triglycerides. […]. […] A significant reduction of liver fat content (MRS) is visible as early as 2 weeks on treatment. The correlation between liver lipid content as measured by MRS and hepatic triglyceride levels as measured ex vivo is r2=0.565 (p<0.0001).

ob/ob mice [4] = assay: Blood glucose AUC in ob/ob mice after 14 d linagliptin; conditions: 3 mg/kg/d
ob/ob mice [5] = assay: Blinded histological scoring of liver (fat content, markers of inflammation) in ob/ob mice; conditions: 3 mg/kg/d, 14 d, n=9, p<0.01 vs. control 3±0.18

| Structure (SMILES) | Average improvement in the HbA1c value [1] | Blood glucose levels following an OGTT (AUC) suppressed (DIO mice [2]; 3 mg/kg/d) | Blood glucose levels following an OGTT (AUC) suppressed (DIO mice [2]; 30 mg/kg/d) | Time on treatment at which significant reduction of liver fat content (MRS) is visible (DIO mice [3]; DIO mice) [weeks] | Liver fat content (MRS detection) (DIO mice [3]; DIO mice fed 2 or 3 months, 30 mg/kg/d, and 3 mg/kg/d in 3 month fed mice, 4 weeks) | Blood glucose AUC reduction (ob/ob mice [4]) [%] | Histological score (hepatic steatosis and inflammation) (ob/ob mice [5]) |
| --- | --- | --- | --- | --- | --- | --- | --- |
| CN(C)C(=N)N=C(N)N [metformin] | 1.0-1.5% |  |  |  |  |  |  |
| CC#CCn1c(N2CCC[C@@H](N)C2)nc2c1c(=O)n(Cc1nc(C)c3ccccc3n1)c(=O)n2C [linagliptin, 1-[(4-methyl-quinazolin-2-yl)methyl]-3-methyl-7-(2-butyn-1-yl)-8-(3-(R)-amino-piperidin-1-yl)-xanthine] |  | 16%-20% | 20%-26% | 2 | reduced significantly | 25 | 2.2±0.13 |
